Results on 33 molecules are retold here after patent publication US7981893B2, “Heteroaryl compounds, compositions thereof, and methods of treatment therewith” (Signal Pharmaceuticals, LLC, priority 2006, dated 2011).

One may read the IC50 as the concentration at which inhibition is half-maximal. Broadly, the melting point is the temperature of the solid-liquid transition.

In one data set the target is T1, PKCθ (Homo sapiens, UniProt Q04759).
T1 construct: purchased Invitrogen
T1 sequence (Q04759 whole entry): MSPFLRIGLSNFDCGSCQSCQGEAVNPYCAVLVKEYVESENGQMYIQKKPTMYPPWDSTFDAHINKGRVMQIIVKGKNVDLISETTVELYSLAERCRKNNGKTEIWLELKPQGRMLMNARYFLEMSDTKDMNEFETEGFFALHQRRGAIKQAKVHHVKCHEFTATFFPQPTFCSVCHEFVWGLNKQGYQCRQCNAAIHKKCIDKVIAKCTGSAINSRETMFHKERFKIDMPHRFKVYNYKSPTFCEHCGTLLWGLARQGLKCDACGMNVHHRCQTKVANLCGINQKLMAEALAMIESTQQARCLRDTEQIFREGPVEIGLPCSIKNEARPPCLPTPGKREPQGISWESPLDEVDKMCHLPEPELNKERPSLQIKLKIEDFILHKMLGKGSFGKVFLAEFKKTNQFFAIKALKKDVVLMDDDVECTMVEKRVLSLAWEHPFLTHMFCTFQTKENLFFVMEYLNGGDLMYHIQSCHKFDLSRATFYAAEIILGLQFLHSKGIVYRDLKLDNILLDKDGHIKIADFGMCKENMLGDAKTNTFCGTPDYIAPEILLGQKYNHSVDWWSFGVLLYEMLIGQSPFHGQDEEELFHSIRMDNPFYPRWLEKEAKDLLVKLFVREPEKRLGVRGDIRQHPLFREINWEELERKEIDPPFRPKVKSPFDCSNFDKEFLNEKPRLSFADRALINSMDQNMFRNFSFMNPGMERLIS
The data set can be described thus: PKCθ IMAP Assay. As to conditions: IMAP fluorescence polarization screening assay, 35 μM ATP. In kind it is biochemical. Here is the method: The following is an example of an assay that can be used to determine the PKCθ inhibitory activity of a test compound. Reagents are prepared as follows:
Assay Buffer: 50 mM HEPES (pH 7.6), 10 mM MgCl, 0.1 mM EDTA, 5 mM MBP, 0.01% Triton, 1 mM DTT, 0.05 mg/ml phosphatidyl serine, 0.05 mg/ml diacylglycerol.
The final concentration of PKCθ (Invitrogen) is 0.5 nM. The final concentration of substrate (FAM-AKRRRLSSLRA) (Molecular Devices) is 100 nM. The final concentration of ATP in the reaction is 35 μM. The final concentration of DMSO in the reaction is 2.5%.
Enzyme is kept in 5 μl aliquots and stored at −80° C. prior to use. Test compound is allowed to pre-incubate with enzyme for 45 minutes before the reactions is initiated.
The reaction mixture consists of: 5 μl of test compound in 10% DMSO, 5 μl of 400 nM substrate (FAM-AKRRRLSSLRA), 5 μl of […] PKCθ, and 5 μl of 140 μM ATP (ATP is added to the reaction mixture last to initiate the reaction) per well.
The reaction is allowed to proceed for 60 minutes and is terminated by adding 30 μl per well of 90% Progressive A buffer/10% Progressive B buffer and a 1:400 dilution of binding beeds (Molecular Devices).
The reaction is given a binding incubation time of at least 30 minutes prior to reading the fluorescence polarization signal on an Analyst reader (the following detector settings are used: fluorescein excitation-485 nm, fluorescein emission-530 nm, fluorescein dichroic-505 nm).
For orientation: Polarisation of emitted light reports the rotation of a fluorescent probe.
Consider `C[C@H](c1ccccc1)n1c(=O)[nH]c2ncc(-c3cccc4ccccc34)nc21` [Compound 3, (R)-6-(naphthalen-1-yl)-1-(1-phenylethyl)-1H-imidazo[4,5-b]pyrazin-2(3H)-one], for which the half-maximal inhibitory concentration (IC50) was above 30 µM.
The same measure, in the same setting: with `C[C@@H](c1ccccc1)n1c(=O)[nH]c2ncc(-c3cccc4ccccc34)nc21` [Compound 7, (S)-6-(naphthalen-1-yl)-1-(1-phenylethyl)-1H-imidazo[4,5-b]pyrazin-2(3H)-one] the figure was above 30 µM; with `CC(C)[C@H](CO)n1c(=O)[nH]c2ncc(-c3ccccc3)nc21` [Compound 9, (R)-1-(1-hydroxy-3-methylbutan-2-yl)-6-phenyl-1H-imidazo[4,5-b]pyrazin-2(3H)-one], above 30 µM.
`CC(C)[C@H](CO)n1c(=O)[nH]c2ncc(-c3cccc4ncccc34)nc21` [Compound 12, (R)-1-(1-hydroxy-3-methylbutan-2-yl)-6-(quinolin-5-yl)-1H-imidazo[4,5-b]pyrazin-2(3H)-one] had an IC50 above 30 µM.
On the same count and under the same terms, to `C[C@H](c1ccccc1)n1c(=O)[nH]c2nccnc21` [Compound 16, (R)-1-(1-phenylethyl)-1H-imidazo[4,5-b]pyrazin-2(3H)-one] belongs above 30 µM; to `C[C@@H](c1ccccc1)n1c(=O)[nH]c2nccnc21` [Compound 17, (S)-1-(1-phenylethyl)-1H-imidazo[4,5-b]pyrazin-2(3H)-one], above 30 µM.
Take `COc1ccc(C(C)C)cc1-c1cnc2[nH]c(=O)n(C(C)C)c2n1` [Compound 18, 1-isopropyl-6-(5-isopropyl-2-methoxyphenyl)-1H-imidazo[4,5-b]pyrazin-2(3H)-one]: the IC50 is 5.1 to 10 µM.
Same read-out and setting: to `COc1ccc(C(C)C)cc1-c1cnc2[nH]c(=O)n(C3CCCCC3)c2n1` [Compound 19, 1-cyclohexyl-6-(5-isopropyl-2-methoxyphenyl)-1H-imidazo[4,5-b]pyrazin-2(3H)-one] belongs above 30 µM; to `O=c1[nH]c2ncc(-c3cccc4ncccc34)nc2[nH]1` [Compound 20, 5-(quinolin-5-yl)-1H-imidazo[4,5-b]pyrazin-2(3H)-one], above 30 µM.
The molecule `COc1ccc(C(C)C)cc1-c1cnc2[nH]c(=O)n(CC(C)C)c2n1` [Compound 21, 1-isobutyl-6-(5-isopropyl-2-methoxyphenyl)-1H-imidazo[4,5-b]pyrazin-2(3H)-one] had an IC50 above 30 µM.
In turn, `COc1ccc(C(C)C)cc1-c1cnc2[nH]c(=O)n(CCO)c2n1` [Compound 22, 1-(2-hydroxyethyl)-6-(5-isopropyl-2-methoxyphenyl)-1H-imidazo[4,5-b]pyrazin-2(3H)-one] displayed a half-maximal inhibitory concentration (IC50) above 30 µM.
Same read-out and setting: to `COc1ccc(C(C)C)cc1-c1cnc2[nH]c(=O)n(C3CCOCC3)c2n1` [Compound 23, 6-(5-isopropyl-2-methoxyphenyl)-1-(tetrahydro-2H-pyran-4-yl)-1H-imidazo[4,5-b]pyrazin-2(3H)-one] belongs above 30 µM; to `COc1ccc(C(C)C)cc1-c1cnc2[nH]c(=O)n([C@H]3CCOC3)c2n1` [Compound 29, (S)-6-(5-isopropyl-2-methoxyphenyl)-1-(tetrahydrofuran-3-yl)-1H-imidazo[4,5-b]pyrazin-2(3H)-one], above 30 µM; to `COc1ccc(C(C)C)cc1-c1cnc2[nH]c(=O)n(C3CCCC3)c2n1` [Compound 31, 1-cyclopentyl-6-(5-isopropyl-2-methoxyphenyl)-1H-imidazo[4,5-b]pyrazin-2(3H)-one], above 30 µM.
On the same count and under the same terms, to `COc1ccc(C(C)C)cc1-c1cnc2[nH]c(=O)n([C@@H]3CCOC3)c2n1` [Compound 32, (R)-6-(5-isopropyl-2-methoxyphenyl)-1-(tetrahydrofuran-3-yl)-1H-imidazo[4,5-b]pyrazin-2(3H)-one] belongs 10.1 to 20 µM; to `COc1ccc(C(C)C)cc1-c1cnc2[nH]c(=O)n(CC3CC3)c2n1` [Compound 33, 1-(cyclopropylmethyl)-6-(5-isopropyl-2-methoxyphenyl)-1H-imidazo[4,5-b]pyrazin-2(3H)-one], above 30 µM.
Turning to `COc1ccc(C(C)C)cc1-c1cnc2[nH]c(=O)n(CC3CCCC3)c2n1` [Compound 34, 1-(cyclopentylmethyl)-6-(5-isopropyl-2-methoxyphenyl)-1H-imidazo[4,5-b]pyrazin-2(3H)-one], the IC50 was above 30 µM.
In turn, `COc1ccc(C(C)C)cc1-c1cnc2[nH]c(=O)n(CC3CCCCC3)c2n1` [Compound 35, 1-(cyclohexylmethyl)-6-(5-isopropyl-2-methoxyphenyl)-1H-imidazo[4,5-b]pyrazin-2(3H)-one] had an IC50 above 30 µM.
Still for that read-out and setting: with `COc1ccc(C(C)C)cc1-c1cnc2[nH]c(=O)n(CC(C)(C)C)c2n1` [Compound 36, 6-(5-isopropyl-2-methoxyphenyl)-1-neopentyl-1H-imidazo[4,5-b]pyrazin-2(3H)-one] the figure was above 30 µM.
The same measure, in the same setting: to `CC(C)c1cccc(-c2cnc3[nH]c(=O)n(C(C)C)c3n2)c1` [Compound 37, 1-isopropyl-6-(3-isopropylphenyl)-1H-imidazo[4,5-b]pyrazin-2(3H)-one] belongs above 30 µM.

System in a further data set: not given
Assay: not given
Details: not given
Regarding `COCCNc1ncc(-c2cnc3[nH]c(=O)n(CC4CCCCC4)c3n2)cn1` [Compound 212, 1-(Cyclohexylmethyl)-6-(2-(2-methoxyethylamino)pyrimidin-5-yl)-1H-imidazo[4,5-b]pyrazin-2(3H)-one], the melting point is above 250 °C.
On the same count and under the same terms, with `Cc1nc(-c2ccc(-c3cnc4[nH]c(=O)n(CCC5CCOCC5)c4n3)cc2)n[nH]1` [Compound 215, 6-(4-(5-methyl-1H-1,2,4-triazol-3-yl)phenyl)-1-(2-(tetrahydro-2H-pyran-4-yl)ethyl)-1H-imidazo[4,5-b]pyrazin-2(3H)-one] the figure was 290 to 292 °C; with `O=c1[nH]c2ncc(-c3ccc(-c4ncc[nH]4)cc3)nc2n1CCC1CCOCC1` [Compound 216, 6-(4-(1H-imidazol-2-yl)phenyl)-1-(2-(tetrahydro-2H-pyran-4-yl)ethyl)-1H-imidazo[4,5-b]pyrazin-2(3H)-one], 293 to 295 °C.
Still for that read-out and setting: with `NCc1nc(-c2ccc(-c3cnc4[nH]c(=O)n(CCC5CCOCC5)c4n3)cc2)n[nH]1` [Compound 220, 6-(4-(5-(aminomethyl)-1H-1,2,4-triazol-3-yl)phenyl)-1-(2-(tetrahydro-2H-pyran-4-yl)ethyl)-1H-imidazo[4,5-b]pyrazin-2(3H)-one] the figure was 258 to 260 °C.
Same read-out and setting: with `O=c1[nH]c2ncc(-c3ccc4[nH]cnc4c3)nc2n1CCC1CCOCC1` [Compound 227, 6-(1H-benzo[d]imidazol-5-yl)-1-(2-(tetrahydro-2H-pyran-4-yl)ethyl)-1H-imidazo[4,5-b]pyrazin-2(3H)-one] the figure was 264 to 265 °C; with `O=c1[nH]c2ncc(-c3cncnc3)nc2n1CC1CCCCC1` [Compound 230, 1-(Cyclohexylmethyl)-6-(pyrimidin-5-yl)-1H-imidazo[4,5-b]pyrazin-2(3H)-one], above 260 °C.
In turn, `O=c1[nH]c2ncc(-c3ccc(F)nc3)nc2n1CC1CCOCC1` [Compound 231, 6-(6-Fluoropyridin-3-yl)-1-((tetrahydro-2H-pyran-4-yl)methyl)-1H-imidazo[4,5-b]pyrazin-2(3H)-one] yielded a melting point of 220 to 222 °C.
The same measure, in the same setting: with `Nc1ccc(-c2cnc3[nH]c(=O)n(CC4CCOCC4)c3n2)cn1` [Compound 232, 6-(6-Aminopyridin-3-yl)-1-((tetrahydro-2H-pyran-4-yl)methyl)-1H-imidazo[4,5-b]pyrazin-2(3H)-one] the figure was above 260 °C; with `CNc1ccc(-c2cnc3[nH]c(=O)n(CC4CCOCC4)c3n2)cn1` [Compound 235, 6-(6-(Methylamino)pyridin-3-yl)-1-((tetrahydro-2H-pyran-4-yl)methyl)-1H-imidazo[4,5-b]pyrazin-2(3H)-one], above 260 °C; with `Nc1ncc(-c2cnc3[nH]c(=O)n(CC4CCCCC4)c3n2)cn1` [Compound 236, 6-(2-aminopyrimidin-5-yl)-1-(cyclohexylmethyl)-1H-imidazo[4,5-b]pyrazin-2(3H)-one], above 250 °C.
The same measure, in the same setting: to `Cc1cc(-c2nc[nH]n2)ccc1-c1cnc2[nH]c(=O)n(CCC3CCOCC3)c2n1` [Compound 239, 6-(2-methyl-4-(1H-1,2,4-triazol-3-yl)phenyl)-1-(2-(tetrahydro-2H-pyran-4-yl)ethyl)-1H-imidazo[4,5-b]pyrazin-2(3H)-one] belongs 258 to 260 °C; to `CC(C)(O)c1ccc(-c2cnc3[nH]c(=O)n(CC4CCCCC4)c3n2)cn1` [Compound 240, 1-(cyclohexylmethyl)-6-(6-(2-hydroxypropan-2-yl)pyridin-3-yl)-1H-imidazo[4,5-b]pyrazin-2(3H)-one], above 250 °C.
For the molecule `C[C@H](c1ccccc1)n1c(=O)[nH]c2ncc(-c3ccc(-c4nc[nH]n4)cc3)nc21` [Compound 249, (R)-6-(4-(1H-1,2,4-triazol-3-yl)phenyl)-1-(1-phenylethyl)-1H-imidazo[4,5-b]pyrazin-2(3H)-one], the melting point was 258 to 260 °C.
